The text below walks through data of patent publication US12653840B2, “Methods for production of platelets from pluripotent stem cells and compositions thereof” (Astellas Institute for Regenerative Medicine, priority 2012, dated 2026).

Series [1] deals with MKs derived from HA-iPS. The experiment in a line: Platelet generation from MKs under constant shear force in a microfluidic device. Type of series: cell-based, human. The procedure: Matured MKs, derived from HA-iPS and MA09 hES lines, were used. Equal numbers of MKs suspended in MK-specific medium were loaded into a microfluidic device in the presence or absence of 20 μM MMP inhibitor GM6001. Constant shear force was applied to the MKs throughout the culture period. MK-medium downstream of MKs was collected at 30 minute intervals for a period of 6 hours. Platelet number and purity (i.e., percentage of total cells that are CD41a^+CD42b^+) in the collected media were measured using flow cytometer.
FIGS. 22-24 provide the results of platelet generation from MKs derived from HA-iPS. The platelets were generated under a constant shear force defined by a flow rate of […] μl/min. […] Purity is expressed at the percentage of total harvested cells that are CD41a+CD42b+.

Series [2] deals with CD42b. The conditions noted are these: reported; cited from earlier work.
Series [3] relates to iPS derived megakaryocytes. The experiment in a line: Platelet formation in static culture with MMP inhibitors. Format: cell-based, human. From the text: FIG. 27. Platelet purity as a result of static culture in the presence of MMP8 specific inhibitor MMP8-I (second bar), pan-MMP inhibitor GM6001 (third bar), or the combination of MMP8-I and GM6001 (fourth bar). The MMP8-I is (3R)-(+)-[2-(4-Methoxybenzenesulfonyl)-1,2,3,4-tetrahydroisoquinoline-3-hydroxamate], and it is commercially available from Millipore. The first bar is the control.
FIG. 28. Platelets numbers as a result of static culture in the presence of MMP8 specific inhibitor MMP8-I (second bar), pan MMP inhibitor GM6001 (third bar), or the combination of MMP8-I and GM6001 (fourth bar). The first bar is the control.
The peak of platelet production is determined by measuring platelet content in the culture, for example on a daily basis for several days. It is typically 4-7 days after the beginning of the MLP differentiation culture period, although it may be longer or it may be shifted.

Series [4] has as its system cells undergoing in vitro megakaryopoiesis. The experiment in a line: iBET-151 in PVE-HE to MLP differentiation culture, harvest at day 6+4. Type of series: cell-based, human.
Procedure: Megakaryocyte progenitor (MLP) numbers harvested at day 6+4 (i.e., day 10 of differentiation) as a function of increasing dose of iBET-151 (in μM). iBET is added to the culture at the 6+3 day time frame, and MLPs are exposed to iBET for a period of about 24 hours prior to their harvest. iBET concentrations: 0 (left bar), 0.1 microM (middle bar), 0.25 microM (right bar). […] CD14+ cell purity in cell population harvested at day 6+4 as a function of increasing dose of iBET-151. iBET concentrations: 0 (left bar), 0.1 microM (middle bar), 0.25 microM (right bar).
In series [5] the test system is GATA-1. Kind of series: Relative quantitative mRNA analysis on day 6+4. Type of series: cell-based, human. As to conditions: 0.1 and 0.25 microM. An excerpt: (§1) FIG. 32. Relative quantitative analysis of mRNA of c-myc and GATA-1 on day 6+4 as a function of increasing dose of iBET-151. iBET concentrations: 0 (left bar), 0.1 microM (middle bar), 0.25 microM (right bar) for each triplet.

Series [6] has as its system c-myc. The experiment in a line: Relative quantitative mRNA analysis on day 6+4. Type of series: cell-based, human. As to conditions: 0.1 and 0.25 microM.
From the text: as §1

The subject of series [7] is human and murine MLL-fusion leukemic cell lines. As to conditions: through induction of early cell cycle arrest and apoptosis; cited from earlier work.
For series [8], the system named is developing mouse platelet thrombus. Kind of series: In vivo thrombus formation after laser-induced cremaster arteriolar wall injury, intravital microscopy. Also noted: species or system macrophage-depleted NOD/SCID mice. The conditions noted are these: platelets pretreated with ReoPro. As to the method: Third, hiPSC-PLTs were analyzed for functionality using an in vivo assay system measuring thrombus formation in macrophage-depleted NOD/SCID mice. Briefly, intravital microscopy of cremaster muscle arterioles was performed as previously described (Cell Research 2011 21:530-45). Macrophage-depleted NOD/SCID mice were anesthetized by intraperitoneal injection of ketamine (125 mg/kg) and xylazine (25 mg/kg). A tracheal tube was inserted and the mouse was placed on a thermo-controlled blanket. After incision of the scrotum, the cremaster muscle was exteriorized onto an intravital microscopy tray. The muscle preparation was superfused with thermo-controlled (37° C.) and aerated (95% N2, 5% CO2) bicarbonate-buffered saline throughout the experiment. The cremaster muscle arteriolar wall was injured by micropoint laser ablation using a Micropoint Laser System (Photonics Instruments). […] Fluorescence and brightfield images were recorded using an Olympus BX61W microscope with a 60 x/1.0 NA water immersion objective and a high speed camera (Hamamatsu C9300) through an intensifier (Video Scope International). Data were collected for 5 min following vessel wall injury and analyzed using Slidebook v5.0 (Intelligent Imaging Innovations).

Entries after “also recorded” stand apart in the source; their conditions may differ.

On to `CNC(=O)[C@H](Cc1c[nH]c2ccccc12)NC(=O)[C@@H](CC(=O)NO)CC(C)C` [GM6001], for which the “platelet purity (percentage of total harvested cells that are CD41a+CD42b+)” value in series [1] (20 μM, added at beginning of culture, constant shear force, vs DMSO) is given as “significantly improved”. In addition, the “platelet yield / platelet numbers” value in series [1] (20 μM, constant shear force, vs DMSO) is reported as “significantly improved; also recorded: significantly more platelets”. The “CD42b shedding from platelets” value in series [2] is “inhibit CD42b shedding”.
Regarding `COc1ccc(S(=O)(=O)N2Cc3ccccc3C[C@@H]2C(=O)NO)cc1` [MMP8 specific inhibitor, (3R)-(+)-[2-(4-Methoxybenzenesulfonyl)-1,2,3,4-tetrahydroisoquinoline-3-hydroxamate]], in series [3] (added at peak of platelet production of MKs, static culture, control 43.7%), the “purity of iPS-derived platelets (CD41a+CD42b+)” value is reported as 65.5%. Also, the “potency in protecting platelet function” value in series [3] (comparative study of several specific MMP inhibitors) is on record as “more potency than GM6001”. In series [3] (static culture), the “CD41a+CD42b+ platelets produced, compared to GM6001” value is recorded as “Significantly more” and the “purity, more than obtained from GM6001-treated cultures” value is given as “approximately 10%”.
As for `COc1cc2c(cc1-c1c(C)noc1C)ncc1[nH]c(=O)n([C@H](C)c3ccccn3)c12` [i-BET-151], in series [4] (0.1 and 0.25 microM, day 6+4), the “number of CD14+ myeloid cells” value was “dose-dependent decrease”. The apoptosis result in series [4] (high dose) was “triggers massive apoptosis”. The “numbers of MK progenitors” value in series [4] (lower doses in the micromolar (or submicromolar) range, 0.1 and 0.25 microM, about 24 hours) is “increased numbers”. For the same molecule, the “GATA1 gene expression (mRNA)” value in series [5] is reported as “up-regulated”. For the same molecule, in series [6], the “c myc gene expression (mRNA)” value is “dose:-dependent inhibition”. Further, in series [7], the “efficacy against MLL-fusion leukemic cell lines” value was “profound efficacy”.
Take dextran: the platelet formation entry in series [1] (8% dextran added to increase viscosity of culture medium, with GM6001, shear force) is “negative impact”.

B1: ReoPro: Fab fragment of a human-murine chimeric monoclonal antibody that binds specifically to αIIbβIII and inhibits platelet function (antibody, chains of the INN, looked up, V domains shown)
VH: EVQLQQSGTVLARPGASVKMSCEASGYTFTNYWMHWVKQRPGQGLEWIGAIYPGNSDTSYIQKFKGKAKLTAVTSTTSVYMELSSLTNEDSAVYYCTLYDGYYVFAYWGQGTLVTVSA
VL: EIVLTQSPVTLSVTPGDSVSLSCRASRDISNNLHWFQQTSHESPRLLIKYASQSMSGIPSRFSGSGSGTDFTLSINSVETEDFGMYFCQQTNSWPYTFGGGTKLEIK
modifications: Fab
Regarding B1, the “number of platelets bound to / incorporating in the thrombus after ReoPro pretreatment” value in series [8] is “inhibited; also recorded: markedly reduced”.
